# Test results from patent publication US12440492B2, “Pharmaceutical compositions comprising AKT protein kinase inhibitors” (Genentech, Inc., priority 2016, dated 2025).
# Where a name gives a salt, the structure may show the parent alone.
# What was measured:
# Format in all cases: physicochemical
# [1] = Mechanical deformation behaviour (brittleness); conditions: more brittle than lactose
# Excerpt: Mechanical compression during tableting of conventional pharmaceutical compositions comprising ipatasertib leads to exhausted compressibility, followed by elastic recovery of the tablet upon decompression. Therefore conventional pharmaceutical compositions comprising ipatasertib monohydrochloride are not suitable for direct compression due to lamination problems (crack formation during decompression) which are detectable as small cracks and fractures of the tablet core (e.g. using X-ray microtomography). Industrially required high-speed tableting processes may not be achievable.
# [2] = Hygroscopicity of ipatasertib
# Excerpt: (§1) Whereas poor solubility is often a limiting factor in the development of galenical formulations of other API's (active pharmaceutical ingredient), a high solubility can equally be problematic for the process performance. Due to this very high intrinsic hygroscopicity of the API, ipatasertib drug substance tends to auto-dissolve to a honey-like viscous liquid at increased humidity. Such high solubility and hygroscopicity may pose serious problems for processing as well as for stability and shelf-life of the final product. Therefore, conventional pharmaceutical compositions comprising ipatasertib and processes for the manufacture of pharmaceutical compositions comprising wetting (e.g. wet granulation) are difficult due to the high solubility and high hygroscopicity of the API.
# [3] = Solubility of ipatasertib
# Excerpt: as §1
Structure (SMILES),brittle deformation characteristics relative to lactose [1],hygroscopicity ([2]; at 50% RH),hygroscopicity ([2]; at 95% RH),solubility ([3]; water),solubility ([3]; water/ethanol 1:1)
"CC(C)NC[C@@H](C(=O)N1CCN(c2ncnc3c2[C@H](C)C[C@H]3O)CC1)c1ccc(Cl)cc1 [ipatasertib monohydrochloride, (S)-2-(4-chlorophenyl)-1-(4-((5R,7R)-7-hydroxy-5-methyl-6,7-dihydro-5H-cyclopenta[d]pyrimidin-4-yl)piperazin-1-yl)-3-(isopropylamino)propan-1-one as monohydrochloride salt]",3 ×,,,,
"CC(C)NC[C@@H](C(=O)N1CCN(c2ncnc3c2[C@H](C)C[C@H]3O)CC1)c1ccc(Cl)cc1 [ipatasertib, (S)-2-(4-chlorophenyl)-1-(4-((5R,7R)-7-hydroxy-5-methyl-6,7-dihydro-5H-cyclopenta[d]pyrimidin-4-yl)piperazin-1-yl)-3-(isopropylamino)propan-1-one]",,~6%,> 35%,> 1 g/g,> 2 g/g
